Measurements published in US20210122730A1, “GLUCOCORTICOID RECEPTOR MODULATORS” (ORIC Pharmaceuticals, Inc., priority 2017, published 2021).

Molecular target: T1, GR (Homo sapiens, UniProt P04150)
T1 construct: expressed in transfected cells; host or cells: CHO-K1
T1 sequence (P04150 1-777): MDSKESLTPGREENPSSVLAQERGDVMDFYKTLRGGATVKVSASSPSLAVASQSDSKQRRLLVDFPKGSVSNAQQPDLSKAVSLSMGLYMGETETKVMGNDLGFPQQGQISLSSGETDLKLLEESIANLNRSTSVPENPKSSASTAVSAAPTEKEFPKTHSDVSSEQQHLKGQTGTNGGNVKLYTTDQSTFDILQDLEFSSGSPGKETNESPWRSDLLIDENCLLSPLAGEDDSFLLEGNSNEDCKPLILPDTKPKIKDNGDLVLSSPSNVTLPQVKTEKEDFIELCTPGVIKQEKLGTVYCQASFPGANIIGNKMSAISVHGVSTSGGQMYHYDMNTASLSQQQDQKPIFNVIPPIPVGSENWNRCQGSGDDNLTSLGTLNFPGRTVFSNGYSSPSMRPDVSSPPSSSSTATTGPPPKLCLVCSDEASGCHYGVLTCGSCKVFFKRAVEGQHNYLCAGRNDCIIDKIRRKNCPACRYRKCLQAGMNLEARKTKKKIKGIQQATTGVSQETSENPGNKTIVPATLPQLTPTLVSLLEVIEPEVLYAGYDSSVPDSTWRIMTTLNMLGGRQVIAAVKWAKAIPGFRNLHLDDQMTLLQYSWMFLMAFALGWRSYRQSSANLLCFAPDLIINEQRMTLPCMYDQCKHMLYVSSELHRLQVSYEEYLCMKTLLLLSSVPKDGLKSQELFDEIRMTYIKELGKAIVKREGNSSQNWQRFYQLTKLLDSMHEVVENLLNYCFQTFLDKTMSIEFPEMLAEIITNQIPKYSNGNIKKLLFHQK
Test: In Vitro GR Luciferase Reporter Assay (antagonist mode, CHO-K1-GR-MMTV-Luc reporter cells)
Type: cell-based
Settings: antagonist assay with 10 nM Dexamethasone, 18-24 hours
From the text: Example A: In Vitro GR Luciferase Reporter Assay
Cell Line: CHO-K1-GR-MMTV-Luc reporter cells
Culture Media: DMEM (with phenol red)+10% FBS
Assay Media: DMEM (without phenol red)+10% CSS
Culture CHO-K1I-GR-MMTV-Luc reporter cells in 15 cm plates in Culture Media at conditions less than 90% confluence.
Prepare 200×DMSO 1:5 serial dilutions of control and test compounds in 96-well non-sterile V bottom plate in DMSO, 8serial dilutions for each compound.
Prepare 5× Assay Media diluted compound serial dilutions in 96-well non-sterile V bottom plate: Add 97.5 uL/well of Assay Media into 96-well then add 2.5 ul of 200× concentration of compounds and mix well.
Seed cells for Antagonist Assay: […] CHO-K1-GR-MMTV-Luc reporter cells were seeded in a Corning 3707 flat clear bottom 384-well white TC plate in 20 ul of Assay Media containing 12.5 nM Dexamethasone (final concentration=10 nM).
Add compounds: 5 ul of assay media diluted compounds were added to appropriate wells and followed a quick spin (1000 rpm, 10 sec) to bring media and cells to the bottom of plate. The plates were covered with SealMate film to avoid evaporation and placed in 37° C. incubator for approximately 18-24 hours.
Read plates: Equilibrate appropriate amount of Promega OneGlo luciferase reagent to room temperature. Remove the plates from incubator and add 25 uL of OneGlo reagent/well by multiple channel pipette and read the plates with Tecan F500 luminometer within 3 minutes.
The ability of the compounds disclosed herein to inhibit GR activity was quantified and the respective IC50 value was determined. Table 1and Table 2provide the cellular IC50 values of compounds disclosed herein.

| IC50 | Structure (SMILES) |
| --- | --- |
| ≤ 100 nM | O=C(c1ccccn1)[C@]12Cc3cnn(-c4ccc(F)cc4)c3C=C1CC[C@H](S(=O)(=O)C1CCCCC1)C2 [Example 35, ((4aS,6S)-6-(cyclohexylsulfonyl)-1-(4-fluorophenyl)-1,4,5,6,7,8-hexahydro-4aH-benzo[f]indazol-4a-yl)(pyridin-2-yl)methanone] |
| ≤ 100 nM | Cc1ccnc(C(=O)[C@]23Cc4cnn(-c5ccc(F)cc5)c4C=C2CC[C@H](S(=O)(=O)c2ccccc2)C3)c1 [Example 36, ((4aS,6S)-1-(4-fluorophenyl)-6-(phenylsulfonyl)-1,4,5,6,7,8-hexahydro-4aH-benzo[f]indazol-4a-yl)(4-methylpyridin-2-yl)methanone] |
| ≤ 100 nM | O=C(c1ccccn1)[C@]12Cc3cnn(-c4ccc(F)cc4)c3C=C1CC[C@H](S(=O)(=O)c1cccc(Cl)c1)C2 [Example 37, ((4aS,6S)-6-((3-chlorophenyl)sulfonyl)-1-(4-fluorophenyl)-1,4,5,6,7,8-hexahydro-4aH-benzo[f]indazol-4a-yl)(pyridin-2-yl)methanone] |
| ≤ 100 nM | Cc1ccnc(C(=O)[C@]23Cc4cnn(-c5ccc(F)cc5)c4C=C2CC[C@@H](S(=O)(=O)c2ccccc2)C3)c1 [Example 38, ((4aS,6R)-1-(4-fluorophenyl)-6-(phenylsulfonyl)-1,4,5,6,7,8-hexahydro-4aH-benzo[f]indazol-4a-yl)(4-methylpyridin-2-yl)methanone] |
| ≤ 100 nM | Cc1ccnc(C(=O)[C@]23Cc4cnn(-c5ccc(F)cc5)c4C=C2CC[C@H](S(=O)(=O)c2cnn(C)n2)C3)c1 [Example 39, ((4aS,6S)-1-(4-fluorophenyl)-6-((2-methyl-2H-1,2,3-triazol-4-yl)sulfonyl)-1,4,5,6,7,8-hexahydro-4aH-benzo[f]indazol-4a-yl)(4-methylpyridin-2-yl)methanone] |
| ≤ 100 nM | CC(C)(C)S(=O)(=O)[C@H]1CCC2=Cc3c(cnn3-c3ccc(F)cc3)C[C@]2(C(=O)c2ccccn2)C1 [Example 40, ((4aS,6S)-6-(tert-butylsulfonyl)-1-(4-fluorophenyl)-1,4,5,6,7,8-hexahydro-4aH-benzo[f]indazol-4a-yl)(pyridin-2-yl)methanone] |
| ≤ 100 nM | O=C(c1cc(C(F)(F)F)ccn1)[C@]12Cc3cnn(-c4ccc(F)cc4)c3C=C1CC[C@H](S(=O)(=O)c1ccccn1)C2 [Example 41, ((4aS,6S)-1-(4-fluorophenyl)-6-(pyridin-2-ylsulfonyl)-1,4,5,6,7,8-hexahydro-4aH-benzo[f]indazol-4a-yl)(4-(trifluoromethyl)pyridin-2-yl)methanone] |
| ≤ 100 nM | Cc1ccc(C(=O)[C@]23Cc4cnn(-c5ccc(F)cc5)c4C=C2CC[C@H](S(=O)(=O)c2ccccn2)C3)nc1 [Example 42, ((4aS,6S)-1-(4-fluorophenyl)-6-(pyridin-2-ylsulfonyl)-1,4,5,6,7,8-hexahydro-4aH-benzo[f]indazol-4a-yl)(5-methylpyridin-2-yl)methanone] |
| ≤ 100 nM | O=C(c1ccccn1)[C@]12Cc3cnn(-c4ccc(F)cc4)c3C=C1CC[C@H](S(=O)(=O)c1cc(C(F)(F)F)ccn1)C2 [Example 43, ((4aS,6S)-1-(4-fluorophenyl)-6-((4-(trifluoromethyl)pyridin-2-yl)sulfonyl)-1,4,5,6,7,8-hexahydro-4aH-benzo[f]indazol-4a-yl)(pyridin-2-yl)methanone] |
| ≤ 100 nM | Cc1ccnc(C(=O)[C@]23Cc4cnn(-c5ccc(F)cc5)c4C=C2CC[C@H](S(=O)(=O)c2cccc(Cl)c2)C3)c1 [Example 44, ((4aS,6S)-6-((3-chlorophenyl)sulfonyl)-1-(4-fluorophenyl)-1,4,5,6,7,8-hexahydro-4aH-benzo[f]indazol-4a-yl)(4-methylpyridin-2-yl)methanone] |
| ≤ 100 nM | Cc1ccc(C(=O)[C@]23Cc4cnn(-c5ccc(F)cc5)c4C=C2CC[C@H](S(=O)(=O)c2ccccc2)C3)nc1 [Example 45, ((4aS,6S)-1-(4-fluorophenyl)-6-(phenylsulfonyl)-1,4,5,6,7,8-hexahydro-4aH-benzo[f]indazol-4a-yl)(5-methylpyridin-2-yl)methanone] |
| ≤ 100 nM | O=C(c1ccccn1)[C@]12Cc3cnn(-c4ccc(F)cc4)c3C=C1CC[C@H](S(=O)(=O)C1CCOCC1)C2 [Example 46, ((4aS,6S)-1-(4-fluorophenyl)-6-((tetrahydro-2H-pyran-4-yl)sulfonyl)-1,4,5,6,7,8-hexahydro-4aH-benzo[f]indazol-4a-yl)(pyridin-2-yl)methanone] |
| ≤ 100 nM | O=C(c1ccccn1)[C@]12Cc3cnn(-c4ccc(F)cc4)c3C=C1CC[C@H](S(=O)(=O)c1ccncc1)C2 [Example 47, ((4aS,6S)-1-(4-fluorophenyl)-6-(pyridin-4-ylsulfonyl)-1,4,5,6,7,8-hexahydro-4aH-benzo[f]indazol-4a-yl)(pyridin-2-yl)methanone] |
| ≤ 100 nM | Cc1ccnc(C(=O)[C@]23Cc4cnn(-c5ccc(F)cc5)c4C=C2CC[C@H](S(=O)(=O)c2ccncc2)C3)c1 [Example 48, ((4aS,6S)-1-(4-fluorophenyl)-6-(pyridin-4-ylsulfonyl)-1,4,5,6,7,8-hexahydro-4aH-benzo[f]indazol-4a-yl)(4-methylpyridin-2-yl)methanone] |
| ≤ 100 nM | CC(C)(C)CS(=O)(=O)[C@H]1CCC2=Cc3c(cnn3-c3ccc(F)cc3)C[C@]2(C(=O)c2ccccn2)C1 [Example 49, ((4aS,6S)-1-(4-fluorophenyl)-6-(neopentylsulfonyl)-1,4,5,6,7,8-hexahydro-4aH-benzo[f]indazol-4a-yl)(pyridin-2-yl)methanone] |
| ≤ 100 nM | O=C(c1ccccn1)[C@]12Cc3cnn(-c4ccc(F)cc4)c3C=C1CC[C@H](S(=O)(=O)C1CCCC1)C2 [Example 50, ((4aS,6S)-6-(cyclopentylsulfonyl)-1-(4-fluorophenyl)-1,4,5,6,7,8-hexahydro-4aH-benzo[f]indazol-4a-yl)(pyridin-2-yl)methanone] |
| ≤ 100 nM | Cc1ccc(C(=O)[C@]23Cc4cnn(-c5ccc(F)cc5)c4C=C2CC[C@@H](S(=O)(=O)c2ccccc2)C3)nc1 [Example 51, ((4aS,6R)-1-(4-fluorophenyl)-6-(phenylsulfonyl)-1,4,5,6,7,8-hexahydro-4aH-benzo[f]indazol-4a-yl)(5-methylpyridin-2-yl)methanone] |
| ≤ 100 nM | O=C(c1ccccn1)[C@]12Cc3cnn(-c4ccc(F)cc4)c3C=C1CC[C@H](S(=O)(=O)c1cccnc1)C2 [Example 53, ((4aS,6S)-1-(4-fluorophenyl)-6-(pyridin-3-ylsulfonyl)-1,4,5,6,7,8-hexahydro-4aH-benzo[f]indazol-4a-yl)(pyridin-2-yl)methanone] |
| ≤ 100 nM | O=C(c1cc(C(F)(F)F)ccn1)[C@]12Cc3cnn(-c4ccc(F)cc4)c3C=C1CC[C@H](S(=O)(=O)c1cccnc1)C2 [Example 54, ((4aS,6S)-1-(4-fluorophenyl)-6-(pyridin-3-ylsulfonyl)-1,4,5,6,7,8-hexahydro-4aH-benzo[f]indazol-4a-yl)(4-(trifluoromethyl)pyridin-2-yl)methanone] |
| ≤ 100 nM | O=C(c1ccc(C2CC2)cn1)[C@]12Cc3cnn(-c4ccc(F)cc4)c3C=C1CC[C@H](S(=O)(=O)c1ccccn1)C2 [Example 57, (5-cyclopropylpyridin-2-yl)((4aS,6S)-1-(4-fluorophenyl)-6-(pyridin-2-ylsulfonyl)-1,4,5,6,7,8-hexahydro-4aH-benzo[f]indazol-4a-yl)methanone] |
| ≤ 100 nM | O=C(c1ccc(C(F)(F)F)cn1)[C@]12Cc3cnn(-c4ccc(F)cc4)c3C=C1CC[C@H](S(=O)(=O)c1ccccn1)C2 [Example 58, ((4aS,6S)-1-(4-fluorophenyl)-6-(pyridin-2-ylsulfonyl)-1,4,5,6,7,8-hexahydro-4aH-benzo[f]indazol-4a-yl)(5-(trifluoromethyl)pyridin-2-yl)methanone] |
